In patent US11446287B2, “Compounds and methods for EP300 or CBP modulation and indications therefor” (Opna Immuno-Oncology SA, priority 2019, dated 2022):

Each compound was assayed against T1, Recombinant human EP300 containing the bromodomain (EP300-BD (1040-1161)) (Homo sapiens, UniProt Q09472) (assay: EP300 Alphascreen binding assay).
T1 construct: Recombinant human EP300 bromodomain (EP300-BD (1040-1161)); made in house; host or cells: E. coli BL21-CodonPlus (DE3), modified pET vector
T1 sequence (Q09472 1040-1161): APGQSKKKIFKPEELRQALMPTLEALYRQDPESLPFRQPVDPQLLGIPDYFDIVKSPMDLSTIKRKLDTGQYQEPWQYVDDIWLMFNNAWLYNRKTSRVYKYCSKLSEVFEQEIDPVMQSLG
Protocol: EP300 Alphascreen Binding Assay
Binding of compounds of Formula (I) with EP300 was assessed using Alphascreen™ binding assay. The inhibition of the interaction between the EP300 bromodomain and its acetylated target protein was measured quantitatively using recombinant EP300 protein, an acetylated Histone 3 peptide and AlphaScreen™ technology. In absence of inhibition of the EP300 protein bound to AlphaScreen™ nickel chelate acceptor beads can interact with the acetylated Histone 3 peptide which is immobilized by the AlphaScreen™ Streptavidin coated beads. This interaction brings donor and acceptor beads in proximity. The close proximity allows the singlet oxygen produced by laser excitation of the donor beads to reach the acceptor beads and generate a luminescence signal. EP300 inhibitors result in a decrease in the proximity signal through an inhibition of the EP300—acetylated peptide interaction.
Recombinant human EP300 containing the bromodomain (EP300-BD (1040-1161)) was prepared and purified as described in protein expression and purification session. The peptide is human Histone H345-64K56Ac-Biotin (Anaspec CA, USA).
Protocol for EP300 assay: All components were prepared in buffer composed of 50 mM HEPES pH 7.5, 50 mM NaCl, 0.01% BSA, 0.01% Triton X-100, 2 mM DTT. Test compounds and DMSO vehicle were diluted 1:50 in buffer and a 4 μL volume is transferred to an Alphaplate. 5.5 μL of EP300 protein and 5.5 μL of peptide were added to wells containing 4 μL of various concentrations of test compounds of Formula (I) or DMSO vehicle in an Alphaplate (PerkinElmer GA, USA) and incubated for 1 hour at room temperature. 5 μL donor and acceptor bead mixture was then added with final concentrations of 7.5 μg/ml. 60 minutes after bead addition, Alpha signal is read on the Envision spectrometer (λEx 680 nm, λEm 520-620 nm). Final concentrations of bromodomain proteins and peptide are as shown below.
All data were normalized to the mean of 16 high and 16 low control wells on each plate. A four parameter curve fit of the following formula was then applied: Y=A+((B−A)/(1+((C/x)^D))) Where ‘A’ is the minimum, ‘B’ is the maximum, ‘C’ is the IC50 and ‘D’ is the Hill slope. Protein Expression and Purification
Recombinant human EP300 bromodomain (EP300-BD (1040-1161)) was expressed in E. coli cells (in a modified pET vector) with an N-terminal six-His tag and purified using a combination of both IMAC (Ni-affinity) and size exclusion chromatography steps.
Recombinant EP300 protein was expressed using the E. coli strain BL21-CodonPlus (DE3) (Agilent Technologies CA, USA). Cells were grown in Terrific Broth (TB) media to an OD600 of 0.7 at 37° C. at which temperature was reduced to 18° C., protein was induced with 1.0 mM isopropyl-β-D-thiogalactopyranoside (“IPTG”) for 20 hours and harvested by centrifugation at 8500×g for 20 minutes. Cells were re-suspended in 0.1M K2PO4 pH 8.0, 250 mM NaCl, 10% Glycerol, 0.75% NP-40, 25 mM Imidazole, with 0.2 mg/ml Lysozyme, 0.2 mM phenylmethanesulfonyl fluoride (“PMSF”), 25 μg/ml DNase I, incubated on ice for 30 minutes and lysed with a cell disruptor (MicroFluidics MA, USA). The lysate was clarified by centrifugation at 20,000×g for 1 hour. The protein was captured with Ni-NTA resin (Life Technologies, USA). Contaminating proteins were washed off with 50 mM HEPES pH 7.5, 500 mM NaCl, and 5% Glycerol. Following 3× wash steps, protein was eluted step wise using 10, 25, 50, 100, 150, and 250 mM Imidazole in 50 mM HEPES pH 7.5, 500 mM NaCl, and 5% glycerol. The protein was further purified using a size exclusion column (26/600 Superdex 200, GE Biosciences NJ, USA) in 10 mM HEPES pH 7.5, […].
Compound Cc1noc(C)c1-c1cnc2c(c1)c(-c1ccc(C(=O)O)cc1OC1COC1)cn2[C@@H](C)c1ccccn1 [P-0137, (S)-4-(5-(3,5-dimethylisoxazol-4-yl)-1-(1-(pyridin-2-yl)ethyl)-1H-pyrrolo[2,3-b]pyridin-3-yl)-3-(oxetan-3-yloxy)benzoic acid] has an IC50 of 0.1 to 1000 nM. Cc1noc(C)c1-c1cnc2c(c1)c(-c1ccc(C(=O)O)cc1OCC1CC1)cn2[C@@H](C)c1ccccn1 [P-0138, (S)-3-(cyclopropylmethoxy)-4-(5-(3,5-dimethylisoxazol-4-yl)-1-(1-(pyridin-2-yl)ethyl)-1H-pyrrolo[2,3-b]pyridin-3-yl)benzoic acid] gave an IC50 of 0.1 to 1000 nM. Cc1noc(C)c1-c1cnc2c(c1)c(-c1ccc(C(=O)O)cc1OCc1ccccc1)cn2[C@@H](C)c1ccccn1 [P-0139, (S)-3-(benzyloxy)-4-(5-(3,5-dimethylisoxazol-4-yl)-1-(1-(pyridin-2-yl)ethyl)-1H-pyrrolo[2,3-b]pyridin-3-yl)benzoic acid] was tested, and the IC50 was 0.1 to 1000 nM. Compound COc1ccc(C(=O)O)cc1-c1cn(C(C)c2ccccc2)c2cc(-c3c(C)noc3C)cnc12 (centres unmarked) [P-0140, 3-(6-(3,5-dimethylisoxazol-4-yl)-1-(1-phenylethyl)-1H-pyrrolo[3,2-b]pyridin-3-yl)-4-methoxybenzoic acid] has an IC50 of 0.1 to 1000 nM. Compound Cc1noc(C)c1-c1cnc2c(-c3cc(C(=O)O)ccc3Cl)cn(C(C)c3ccccc3)c2c1 (centres unmarked) [P-0141, 4-chloro-3-(6-(3,5-dimethylisoxazol-4-yl)-1-(1-phenylethyl)-1H-pyrrolo[3,2-b]pyridin-3-yl)benzoic acid] has an IC50 of 0.1 to 1000 nM. Compound COc1cc(C(=O)O)ccc1-c1cn([C@@H](C)c2ccccn2)c2cc(-c3c(C)noc3C)cnc12 [P-0142, (S)-4-(6-(3,5-dimethylisoxazol-4-yl)-1-(1-(pyridin-2-yl)ethyl)-1H-pyrrolo[3,2-b]pyridin-3-yl)-3-methoxybenzoic acid] has an IC50 of 0.1 to 1000 nM. In the case of Cc1noc(C)c1-c1cnc2c(CC3CCC3)cn(-c3ccc(O)nc3)c2c1 [P-0143, 5-(3-(cyclobutylmethyl)-6-(3,5-dimethylisoxazol-4-yl)-1H-pyrrolo[3,2-b]pyridin-1-yl)pyridin-2-ol], the IC50 is reported as 1000 to 8000 nM. Compound COc1cc(C(=O)O)cc(O)c1-c1cn([C@@H](C)c2ccccn2)c2ncc(-c3c(C)noc3C)cc12 [P-0144, (S)-4-(5-(3,5-dimethylisoxazol-4-yl)-1-(1-(pyridin-2-yl)ethyl)-1H-pyrrolo[2,3-b]pyridin-3-yl)-3-hydroxy-5-methoxybenzoic acid] has an IC50 of 0.1 to 1000 nM. For Cc1noc(C)c1-c1cnc2c(c1)c(-c1ccnc(O)c1)cn2[C@@H](C)c1ccccn1 [P-0145, (S)-4-(5-(3,5-dimethylisoxazol-4-yl)-1-(1-(pyridin-2-yl)ethyl)-1H-pyrrolo[2,3-b]pyridin-3-yl)pyridin-2-ol], the IC50 was 1000 to 8000 nM. COc1cc(C(=O)O)cc(OC)c1-c1cn([C@@H](C)c2ccccn2)c2cc(-c3c(C)noc3C)cnc12 [P-0146, (S)-4-(6-(3,5-dimethylisoxazol-4-yl)-1-(1-(pyridin-2-yl)ethyl)-1H-pyrrolo[3,2-b]pyridin-3-yl)-3,5-dimethoxybenzoic acid] was tested, and the IC50 was 1000 to 8000 nM. Work on CCOc1cc(C(=O)O)cc(OCC)c1-c1cn([C@@H](C)c2ccccn2)c2ncc(-c3c(C)noc3C)cc12 [P-0147, (S)-4-(5-(3,5-dimethylisoxazol-4-yl)-1-(1-(pyridin-2-yl)ethyl)-1H-pyrrolo[2,3-b]pyridin-3-yl)-3,5-diethoxybenzoic acid] yielded an IC50 of 0.1 to 1000 nM. With CC[C@@H](c1ccccn1)n1cc(-c2cc(C(=O)O)ccc2Cl)c2ncc(-c3c(C)noc3C)cc21 [P-0148, (S)-4-chloro-3-(6-(3,5-dimethylisoxazol-4-yl)-1-(1-(pyridin-2-yl)propyl)-1H-pyrrolo[3,2-b]pyridin-3-yl)benzoic acid] the IC50 was 0.1 to 1000 nM. Cc1noc(C)c1-c1cc2c(cn1)c(CC1CCC1)cn2-c1c(Cl)cc(C(=O)O)cc1Cl [P-0149, 3,5-dichloro-4-(3-(cyclobutylmethyl)-6-(3,5-dimethylisoxazol-4-yl)-1H-pyrrolo[3,2-c]pyridin-1-yl)benzoic acid] was tested, and the IC50 was 0.1 to 1000 nM. With Cc1noc(C)c1-c1cnc2c(-c3ccccc3)cn(-c3c(Cl)cc(C(=O)O)cc3Cl)c2c1 [P-0150, 3,5-dichloro-4-(6-(3,5-dimethylisoxazol-4-yl)-3-phenyl-1H-pyrrolo[3,2-b]pyridin-1-yl)benzoic acid] the IC50 was 0.1 to 1000 nM. Work on Cc1noc(C)c1-c1cnc2c(C3=CCOCC3)cn(-c3c(Cl)cc(C(=O)O)cc3Cl)c2c1 [P-0151, 3,5-dichloro-4-(3-(3,6-dihydro-2H-pyran-4-yl)-6-(3,5-dimethylisoxazol-4-yl)-1H-pyrrolo[3,2-b]pyridin-1-yl)benzoic acid] yielded an IC50 of 0.1 to 1000 nM. Compound COc1cc(C(=O)O)cc(OCC2CC2)c1-c1cn([C@@H](C)c2ccccn2)c2ncc(-c3c(C)noc3C)cc12 [P-0152, (S)-3-(cyclopropylmethoxy)-4-(5-(3,5-dimethylisoxazol-4-yl)-1-(1-(pyridin-2-yl)ethyl)-1H-pyrrolo[2,3-b]pyridin-3-yl)-5-methoxybenzoic acid] has an IC50 of 0.1 to 1000 nM. With COc1cc(C(=O)O)cc(OCC(F)(F)F)c1-c1cn([C@@H](C)c2ccccn2)c2ncc(-c3c(C)noc3C)cc12 [P-0153, (S)-4-(5-(3,5-dimethylisoxazol-4-yl)-1-(1-(pyridin-2-yl)ethyl)-1H-pyrrolo[2,3-b]pyridin-3-yl)-3-methoxy-5-(2,2,2-trifluoroethoxy)benzoic acid] the IC50 was 0.1 to 1000 nM. Cc1noc(C)c1-c1cnc2c(-c3ccc(C(=O)O)cc3)c(C(F)(F)F)n([C@@H](C)c3ccccn3)c2c1 [P-0154, (S)-4-(6-(3,5-dimethylisoxazol-4-yl)-1-(1-(pyridin-2-yl)ethyl)-2-(trifluoromethyl)-1H-pyrrolo[3,2-b]pyridin-3-yl)benzoic acid] was tested, and the IC50 was 0.1 to 1000 nM. With Cc1noc(C)c1-c1cnc2c(-c3ccccc3Cl)cn(C(C)(c3ccccn3)c3ccccn3)c2c1 [P-0155, 4-(3-(2-chloropheny1)-1-(1,1-di(pyridin-2-yl)ethyl)-1H-pyrrolo[3,2-b]pyridin-6-yl)-3,5-dimethylisoxazole] the IC50 was 0.1 to 1000 nM. With Cc1noc(C)c1-c1cnc2c(c1)c(-c1ccc(C(=O)O)cc1OC(F)(F)F)cn2C(C1CC1)C1CC1 [P-0156, 4-(1-(dicyclopropylmethyl)-5-(3,5-dimethylisoxazol-4-yl)-1H-pyrrolo[2,3-b]pyridin-3-yl)-3-(trifluoromethoxy)benzoic acid] the IC50 was 0.1 to 1000 nM. Compound Cc1noc(C)c1-c1cnc2c(c1)c(-c1ccc(C(=O)O)cc1OC(F)(F)F)cn2CC1CC(F)(F)C1 [P-0157, 4-(1-((3,3-difluorocyclobutyl)methyl)-5-(3,5-dimethylisoxazol-4-yl)-1H-pyrrolo[2,3-b]pyridin-3-yl)-3-(trifluoromethoxy)benzoic acid] has an IC50 of 0.1 to 1000 nM. Compound Cc1noc(C)c1-c1cnc2c(c1)c(-c1ccc(C(=O)O)cc1OC(F)(F)F)cn2-c1ccccn1 [P-0158, 4-(5-(3,5-dimethylisoxazol-4-yl)-1-(pyridin-2-yl)-1H-pyrrolo[2,3-b]pyridin-3-yl)-3-(trifluoromethoxy)benzoic acid] has an IC50 of 0.1 to 1000 nM. In the case of Cc1noc(C)c1-c1cnc2c(Cc3ccccn3)cn(-c3ccc(C(=O)O)cc3OC(F)(F)F)c2c1 [P-0159, 4-(6-(3,5-dimethylisoxazol-4-yl)-3-(pyridin-2-ylmethyl)-1H-pyrrolo[3,2-b]pyridin-1-yl)-3-(trifluoromethoxy)benzoic acid], the IC50 is reported as 0.1 to 1000 nM.
